Assays:
[1] = target: T1, CHOK1-α5KO-mαvβ1 cells (Mus musculus, UniProt P09055+P43406); experiment: Cell adhesion assay (Epic) on fibronectin; format: cell-based; conditions: in words
T1 construct: expressed in transfected cells; host or cells: CHOK1 with endogenous hamster α5 deleted by CRISPR
Description: For plate preparation, Epic 384-well assay plates (Corning #5040) were washed with OptiMEM (Gibco #31985-070) and coated with murine fibronectin (Abcam #ab92784) at a concentration of 0.1 μg/well for CHO-a5KO-mαvβ1 cells; murine vitronectin (Abcam #ab92727) at 0.075 μg/well for CHO-mαvβ3 cells; or murine vitronectin at 0.125 μg/well for CHO-mαvβ5 (all at a volume of 25 μl/well in OptiMEM), for 1 h. Coating solution was then removed by flicking and plates were washed with OptiMEM and blocked with 25 μl/well of assay buffer [1% Ovalbumin (Sigma #A5503-10G) in OptiMEM containing 1X Pen-Strep (Gibco #15140-148)]. A 5-min baseline reading was taken on a Corning Epic Plate Reader (Model: Epic BT-157900) before removing the assay buffer and adding cells pre-incubated with inhibitors. The Epic plate reader detects cellular mass redistribution (adhesion) on the plate surface as a picometer wavelength shift over time. […] Cells were incubated with the inhibitors for 1 h at RT with gentle rocking, after which 50 μL per well was transferred to the Epic assay plate, and a time course of cell adhesion was monitored for an additional 3 h.

[2] = test system: IPF patient lung fibroblasts; experiment: TGFβ-induced αSMA high-content imaging; format: cell-based, human; conditions: even at 10 μM
Description: Normal human lung fibroblasts (Lonza) and Primary Human IPF Lung Parenchymal Fibroblasts (Donor2) (BioIVT, #PCR-70-0214) were incubated at 37 °C and 5% CO2. To induce fibrotic response in primary cells, a final concentration of 5 ng/ml of recombinant human TGFβ1 (BioLegend, #580702) was added to the culture media and treated for 24 ~ 48 h. Anti-TGFβ neutralizing antibody (1D11) and the isotype control mouse IgG1 were from BioXcell. SB-525334 and bleomycin were from Sigma. MK-0429 was synthesized by Merck & Co., Inc., Kenilworth, NJ, USA. CHOK1-integrin stable lines were cultured in DMEM/F12, Glutamax (Gibco #10565018), 10% FBS (Gibco 310091148), 1 × Pen/Strep (Gibco 315140-148), and 6 ug/mL Puromycin (Gibco #A1113803).
Primary cells (passage 3–5) were grown on Cell carrier Ultra, col1 coated 96-well plates (Perkin Elmer, #6055700) at a density of 25,000 cells/well. Once the cells adhere, they were starved in serum free media for 24 h followed by addition of treatments i.e. 5 ng/mL TGFβ (Biolegend #580702) ± inhibitors. Cells were pre-treated with inhibitors for 30 min prior to the addition of TGFβ stimulation. 48hours post treatment, the cells were fixed in 4% methanol free paraformaldehyde (ThermoFisher Scientific #28908) for 20 min at room temperature and incubated with anti-alpha smooth muscle Actin antibody (Abcam #ab7817) at 1:4000 overnight at 4 °C. […]

T1 sequence (P43406 31-1044): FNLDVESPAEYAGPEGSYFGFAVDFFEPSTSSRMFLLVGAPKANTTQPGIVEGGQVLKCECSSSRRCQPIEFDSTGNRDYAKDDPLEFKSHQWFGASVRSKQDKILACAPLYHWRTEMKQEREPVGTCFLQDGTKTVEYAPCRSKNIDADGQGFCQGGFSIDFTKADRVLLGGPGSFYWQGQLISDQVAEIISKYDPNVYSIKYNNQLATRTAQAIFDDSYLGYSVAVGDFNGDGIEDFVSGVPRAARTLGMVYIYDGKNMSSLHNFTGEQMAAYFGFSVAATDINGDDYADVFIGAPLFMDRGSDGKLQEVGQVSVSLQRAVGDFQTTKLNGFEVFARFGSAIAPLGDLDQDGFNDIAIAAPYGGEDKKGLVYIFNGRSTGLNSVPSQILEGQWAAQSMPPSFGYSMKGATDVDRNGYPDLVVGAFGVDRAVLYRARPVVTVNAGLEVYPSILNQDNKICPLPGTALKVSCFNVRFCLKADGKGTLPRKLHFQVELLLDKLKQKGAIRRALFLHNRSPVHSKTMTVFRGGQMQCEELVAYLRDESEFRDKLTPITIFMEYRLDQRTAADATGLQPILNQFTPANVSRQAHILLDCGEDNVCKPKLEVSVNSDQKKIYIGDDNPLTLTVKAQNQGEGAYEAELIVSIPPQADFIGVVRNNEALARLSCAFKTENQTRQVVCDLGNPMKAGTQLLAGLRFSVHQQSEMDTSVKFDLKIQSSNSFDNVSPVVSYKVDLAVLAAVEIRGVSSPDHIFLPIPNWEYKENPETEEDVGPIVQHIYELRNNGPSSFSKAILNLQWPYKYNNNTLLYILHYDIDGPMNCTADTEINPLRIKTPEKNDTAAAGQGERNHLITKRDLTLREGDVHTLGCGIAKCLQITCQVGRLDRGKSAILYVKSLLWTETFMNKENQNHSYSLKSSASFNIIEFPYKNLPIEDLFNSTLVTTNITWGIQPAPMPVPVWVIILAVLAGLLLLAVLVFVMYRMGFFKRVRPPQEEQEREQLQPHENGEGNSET
T1 sequence (P09055 21-798): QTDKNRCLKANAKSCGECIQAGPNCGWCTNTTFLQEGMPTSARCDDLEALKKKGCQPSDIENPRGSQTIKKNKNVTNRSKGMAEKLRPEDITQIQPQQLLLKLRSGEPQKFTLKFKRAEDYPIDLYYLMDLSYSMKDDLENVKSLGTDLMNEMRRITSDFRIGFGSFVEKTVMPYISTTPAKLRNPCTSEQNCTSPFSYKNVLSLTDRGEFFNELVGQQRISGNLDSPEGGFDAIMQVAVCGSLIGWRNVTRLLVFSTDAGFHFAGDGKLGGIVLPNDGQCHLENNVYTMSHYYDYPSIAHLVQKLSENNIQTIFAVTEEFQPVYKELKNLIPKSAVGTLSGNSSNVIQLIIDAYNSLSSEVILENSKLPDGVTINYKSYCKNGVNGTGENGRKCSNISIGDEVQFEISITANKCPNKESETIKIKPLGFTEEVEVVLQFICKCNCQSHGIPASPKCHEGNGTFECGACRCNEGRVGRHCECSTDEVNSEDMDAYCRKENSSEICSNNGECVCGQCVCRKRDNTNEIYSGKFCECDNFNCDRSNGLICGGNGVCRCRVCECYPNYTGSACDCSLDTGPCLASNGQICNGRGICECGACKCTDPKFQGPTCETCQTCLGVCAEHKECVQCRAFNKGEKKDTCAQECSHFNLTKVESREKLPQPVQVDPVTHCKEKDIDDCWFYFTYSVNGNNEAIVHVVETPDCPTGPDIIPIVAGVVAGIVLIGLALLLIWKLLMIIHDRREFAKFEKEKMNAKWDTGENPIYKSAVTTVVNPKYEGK

COc1ccc(C(CC(=O)O)N2CCN(CCCc3ccc4c(n3)NCCC4)C2=O)cn1 (centres unmarked) [MK-0429]
Effect on cell adhesion, mouse αvβ1-expressing CHOK1-α5KO cells [1]: potently reduced | Inhibition of αSMA induction [2]: minimal activity

Reference: PMC7822819, “Discovery of a new class of integrin antibodies for fibrosis” (Scientific Reports, 2021)
